Read-outs that look alike come from different tables or passages of the source.
Key:
[1] = tested on: pigweed; test: Test A pre-/postemergence herbicide test; assay type: in vivo, Amaranthus retroflexus; conditions: for Pigweed plant response rating: Preemergence, visual rating on 0 to 100 scale (0 no effect, 100 complete control); for pest or weed control at 500 g/ha: Amaranthus retroflexus, 240 h, read-out: Plant response rating, Pigweed
Outline: (§1)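 Approximately 10 days after treatment in the greenhouse, plants were compared with untreated controls and given a 0–100 visual injury rating. Applications: preemergence directed soil spray; postemergence on 2–10 cm plants at the one- to two-leaf stage.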

[2] = tested on: wheat; test: Test A pre-/postemergence herbicide test; assay type: in vivo, Triticum aestivum; conditions: for Wheat plant response rating: Preemergence, visual rating on 0 to 100 scale (0 no effect, 100 complete control); for plant injury at 500 g/ha: Triticum aestivum, 240 h, read-out: Plant response rating, Wheat
Outline: as §1

[3] = tested on: corn; test: Test A pre-/postemergence herbicide test; assay type: in vivo, Zea mays; conditions: for Corn plant response rating: Preemergence, visual rating on 0 to 100 scale (0 no effect, 100 complete control)
Outline: as §1

[4] = tested on: ryegrass, Italian; test: Test C pre-/postemergence herbicide test; assay type: in vivo, Lolium multiflorum
Text: (§2) Seeds of plant species selected from blackgrass (Alopecurus myosuroides), ryegrass, Italian (Italian ryegrass, Lolium multiflorum), wheat (winter wheat, Triticum aestivum), galium (catchweed bedstraw, Galium aparine), corn (Zea mays), crabgrass, large (large crabgrass, Digitaria sanguinalis), foxtail, giant (giant foxtail, Setaria faberii), johnsongrass (Sorghum halepense), lambsquarters (Chenopodium album), morningglory (Ipomoea coccinea), nutsedge, yellow (yellow nutsedge, Cyperus esculentus), pigweed (Amaranthus retroflexus), ragweed (common ragweed, Ambrosia elatior), soybean (Glycine max), barnyardgrass (Echinochloa crus-galli), oilseed rape (Brassica napus), waterhemp (common waterhemp, Amaranthus rudis), kochia (Kochia scoparia), oat, wild (wild oat, Avena fatua), surinam grass (Brachiaria decumbens), foxtail, green (green foxtail, Setaria viridis), goosegrass (Eleusine indica), bromegrass, downy (downy bromegrass, Bromus tectorum), nightshade (eastern black nightshade, Solanum ptycanthum), cocklebur (common cocklebur, Xanthium strumarium), cupgrass, woolly (woolly cupgrass, Eriochloa villosa), bermudagrass (Cynodon dactylon), sunflower, (common oilseed sunflower, Helianthus annuus), Russian thistle (Salsola kali) and velvetleaf (Abutilon theophrasti) were planted into a blend of loam soil and sand and treated preemergence with test chemicals formulated in a non-phytotoxic solvent mixture which included a surfactant. At the same time, plants selected from these crop and weed species and also barley (winter barley, Hordeum vulgare), […]), chickweed (common chickweed, Stellaria media), deadnettle (henbit deadnettle, Lamium amplexicaule), and canarygrass (littleseed canarygrass, Phalaris minor) were planted in pots containing Redi-Earth® planting medium (Scotts Company, 14111 Scottslawn Road, Marysville, Ohio 43041) comprising spaghnum peat moss, vermiculite, wetting agent and starter nutrients and treated with postemergence applications of test chemicals formulated in the same manner. Plants ranged in height from 2 to 18 cm (1- to 4-leaf stage) for postemergence treatments. Treated plants and controls were maintained in a greenhouse for 13 to 15 days, after which time all species were compared to controls and visually evaluated. Plant response ratings, summarized in Table C, are based on a scale of 0 to 100 where 0 is no effect and 100 is complete control. A dash (-) response means no test result.

[5] = tested on: corn; test: Test C pre-/postemergence herbicide test; assay type: in vivo, Zea mays
Text: as §2

[6] = tested on: johnsongrass; test: Test C pre-/postemergence herbicide test; assay type: in vivo, Sorghum halepense
Outline: (§3)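 Plants grown and held in a greenhouse for 13 to 15 days post-spray, then rated 0–100 by visual comparison with controls. Pre treatments targeted seeds in loam and sand; post treatments targeted 1- to 4-leaf plants in peat-based potting medium.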

[7] = tested on: lambsquarters; test: Test C pre-/postemergence herbicide test; assay type: in vivo, Chenopodium album
Text: as §2

[8] = tested on: morningglory; test: Test C pre-/postemergence herbicide test; assay type: in vivo, Ipomoea coccinea
Outline: as §3

[9] = tested on: nutsedge, yellow; test: Test C pre-/postemergence herbicide test; assay type: in vivo, Cyperus esculentus
Outline: as §3

[10] = tested on: ragweed; test: Test C pre-/postemergence herbicide test; assay type: in vivo, Ambrosia elatior
Outline: as §3

[11] = Postemergence, 125 g ai/ha, 0 to 100 scale, 0 no effect, 100 complete control
[12] = Postemergence, 500 g ai/ha, 0 to 100 scale (0 no effect, 100 complete control)
[13] = preemergence, 500 g ai/ha, 0 to 100 scale
[14] = Postemergence, 31 g ai/ha, scale 0 (no effect) to 100 (complete control)
[15] = Postemergence, 62 g ai/ha, scale 0 to 100 (0 no effect, 100 complete control)
[16] = Postemergence, 125 g ai/ha, scale 0 to 100 (0 no effect, 100 complete control)
[17] = Postemergence, 250 g ai/ha, scale 0 to 100 (0 no effect, 100 complete control)
[18] = Preemergence, 31 g ai/ha, scale 0 to 100, 0 is no effect and 100 is complete control
[19] = Preemergence, 62 g ai/ha, scale 0 to 100
[20] = Preemergence, 125 g ai/ha, scale 0 to 100 (0 no effect, 100 complete control)
[21] = post-emergence, Postemergence, 500 g ai/ha, 0 to 100 scale (0 no effect, 100 complete control)
[22] = pre-emergence, preemergence, 500 g ai/ha, 0 to 100 scale

O=C1NCC(c2ccc(F)c(F)c2)C1C(=O)Nc1cccc(F)c1F (racemic) [Compound 101]
Plant response rating, Pigweed [1, 11]: 20 | Plant response rating, Pigweed [1, 12]: 70 | Pigweed plant response rating ([1]; 125 g ai/ha): 10 | Plant response rating, Pigweed [1, 13]: 70 | Plant response rating, Wheat [2, 11]: 50 | Plant response rating, Wheat [2, 12]: 60 | Wheat plant response rating ([2]; 125 g ai/ha): 60 | Plant response rating, Wheat [2, 13]: 70 | Plant response rating, Corn [3, 11]: 0 | Plant response rating, Corn [3, 12]: 50 | Corn plant response rating ([3]; 125 g ai/ha): 0 | Plant response rating, Corn [3, 13]: 0 | Plant response rating, Ryegrass, Italian [4, 14]: 0 | Plant response rating, Ryegrass, Italian [4, 15]: 0 | Plant response rating, Ryegrass, Italian [4, 16]: 0 | Plant response rating, Ryegrass, Italian [4, 17]: 0 | Ryegrass, Italian plant response rating [4, 18]: 30 | Plant response rating, Ryegrass, Italian [4, 19]: 15 | Plant response rating, Ryegrass, Italian [4, 20]: 30 | Plant response rating (scale of 0 to 100), Ryegrass, Italian ([4]; Preemergence, 250 g ai/ha): 50 | Plant response rating, Corn [5, 14]: 0 | Plant response rating, Corn [5, 15]: 0 | Plant response rating, Corn [5, 16]: 0 | Plant response rating, Corn [5, 17]: 0 | Corn plant response rating [5, 18]: 0 | Plant response rating, Corn [5, 19]: 0 | Plant response rating, Corn [5, 20]: 5 | Plant response rating (scale of 0 to 100), Corn ([5]; Preemergence, 250 g ai/ha): 65 | Plant response rating, Johnsongrass [6, 14]: 0 | Plant response rating, Johnsongrass [6, 15]: 0 | Plant response rating, Johnsongrass [6, 16]: 0 | Plant response rating, Johnsongrass [6, 17]: 0 | Johnsongrass plant response rating [6, 18]: 0 | Plant response rating, Johnsongrass [6, 19]: 15 | Plant response rating, Johnsongrass [6, 20]: 55 | Plant response rating (scale of 0 to 100), Johnsongrass ([6]; Preemergence, 250 g ai/ha): 75 | Plant response rating, Lambsquarters [7, 14]: 10 | Plant response rating, Lambsquarters [7, 15]: 25 | Plant response rating, Lambsquarters [7, 16]: 35 | Plant response rating, Lambsquarters [7, 17]: 70 | Lambsquarters plant response rating [7, 18]: 30 | Plant response rating, Lambsquarters [7, 19]: 85 | Plant response rating, Lambsquarters [7, 20]: 90 | Plant response rating (scale of 0 to 100), Lambsquarters ([7]; Preemergence, 250 g ai/ha): 90 | Plant response rating, Morningglory [8, 14]: 15 | Plant response rating, Morningglory [8, 15]: 15 | Plant response rating, Morningglory [8, 16]: 25 | Plant response rating, Morningglory [8, 17]: 55 | Morningglory plant response rating [8, 18]: 0 | Plant response rating, Morningglory [8, 19]: 0 | Plant response rating, Morningglory [8, 20]: 30 | Plant response rating (scale of 0 to 100), Morningglory ([8]; Preemergence, 250 g ai/ha): 25 | Plant response rating, Nutsedge, Yellow [9, 14]: 0 | Plant response rating, Nutsedge, Yellow [9, 15]: 0 | Plant response rating, Nutsedge, Yellow [9, 16]: 0 | Plant response rating, Nutsedge, Yellow [9, 17]: 5 | Nutsedge, Yellow plant response rating [9, 18]: 0 | Plant response rating, Nutsedge, Yellow [9, 19]: 0 | Plant response rating, Nutsedge, Yellow [9, 20]: 0 | Plant response rating (scale of 0 to 100), Nutsedge, Yellow ([9]; Preemergence, 250 g ai/ha): 0 | Plant response rating, Ragweed [10, 14]: 0 | Plant response rating, Ragweed [10, 15]: 0 | Plant response rating, Ragweed [10, 16]: 5 | Plant response rating, Ragweed [10, 17]: 45 | Ragweed plant response rating [10, 18]: 15 | Plant response rating, Ragweed [10, 19]: 0 | Plant response rating, Ragweed [10, 20]: 5 | Plant response rating (scale of 0 to 100), Ragweed ([10]; Preemergence, 250 g ai/ha): 5

O=C1NCCC1C(=O)N(c1ccc(F)c(F)c1)c1ccccc1F (stereo not shown) [Compound 5, N-(3,4-difluorophenyl)-N-(2-fluorophenyl)-2-oxo-3-pyrrolidinecarboxamide]
pest or weed control at 500 g/ha [1, 21]: 0% | pest or weed control at 500 g/ha [1, 22]: 0% | Pigweed plant response rating ([1]; 125 g ai/ha): 0 | Wheat plant response rating ([2]; 125 g ai/ha): 0 | plant injury at 500 g/ha [2, 21]: 0% | plant injury at 500 g/ha [2, 22]: 0% | Corn plant response rating ([3]; 125 g ai/ha): 0 | Corn plant response rating (crop injury, 0 = no effect, 100 = complete kill) at 125 g/ha ([3]; Zea mays, post-emergence, 240 h, Postemergence, 125 g ai/ha, 0 to 100 scale, 0 no effect, 100 complete control): 0% | Corn plant response rating (crop injury, 0 = no effect, 100 = complete kill) at 500 g/ha ([3]; Zea mays, post-emergence, 240 h, Postemergence, 500 g ai/ha, 0 to 100 scale (0 no effect, 100 complete control)): 0% | Corn plant response rating (crop injury, 0 = no effect, 100 = complete kill) at 500 g/ha ([3]; Zea mays, pre-emergence, 240 h, preemergence, 500 g ai/ha, 0 to 100 scale): 0% | Plant response rating, Ryegrass, Italian [4, 19]: 0 | Plant response rating, Ryegrass, Italian [4, 20]: 0 | Plant response rating, Corn [5, 19]: 0 | Plant response rating, Corn [5, 20]: 0 | Corn plant response rating ([5]; Preemergence, 31 g ai/ha, scale 0 to 100 (0 no effect, 100 complete control)): 0 | Plant response rating, Corn ([5]; Preemergence, 250 g ai/ha, scale 0 to 100 (0 no effect, 100 complete control)): 0 | Plant response rating, Johnsongrass [6, 19]: 0 | Plant response rating, Johnsongrass [6, 20]: 0 | Plant response rating, Lambsquarters [7, 19]: 95 | Plant response rating, Lambsquarters [7, 20]: 95 | Plant response rating, Morningglory [8, 19]: 0 | Plant response rating, Morningglory [8, 20]: 0 | Plant response rating, Nutsedge, Yellow [9, 19]: 0 | Plant response rating, Nutsedge, Yellow [9, 20]: 0 | Plant response rating, Ragweed [10, 19]: 0 | Plant response rating, Ragweed [10, 20]: 0
